In the OligoGym collection:
After the bases stand the sugars from the 5' end (letter, count) and the backbone: PS all phosphorothioate, else s phosphorothioate and o phosphodiester by linkage. Methylation of C is not given here. e = 2'-O-(2-methoxyethyl) (MOE); k = constrained ethyl (cEt); d = 2'-deoxy (DNA); m = 2'-O-methyl

Target: HSD17B13
Details: ASO, HepaRG

Sequence: TTAGAGAGCGATAGAT (sugars k3 d10 k3, PS)
- target mRNA inhibition (1 µM): 23%

Sequence: TCTGGGACCAAGGATA (sugars k3 d9 k3 e1, PS)
- target mRNA inhibition (1 µM): 57%

Sequence: AAAGTGTCCTCGATCC (sugars k3 d10 k3, PS)
- target mRNA inhibition (1 µM): 36%

Sequence: ACCTTACCTTGTGCTT (sugars k3 d10 k3, PS)
- target mRNA inhibition (1 µM): 0%

Sequence: GAGCTAGACAATTGCA (sugars k3 d10 k3, PS)
- target mRNA inhibition (1 µM): 73%

Sequence: ATGATAATTTGGTGTC (sugars k3 d10 k3, PS)
- target mRNA inhibition (1 µM): 55%

Sequence: AAAGACTTTGAGACTC (sugars k3 d10 k3, PS)
- target mRNA inhibition (0.02 µM): 0%
- target mRNA inhibition (0.078 µM): 18%
- target mRNA inhibition (0.313 µM): 40%
- target mRNA inhibition (1 µM): 68%
- target mRNA inhibition (1.25 µM): 65%
- target mRNA inhibition (5 µM): 87%

Sequence: GTCTUAAACCTTCCCT (sugars k3 d1 m1 d8 k3, PS)
- target mRNA inhibition (1 µM): 35%

Sequence: CACTAATCTCAGTACT (sugars k3 d10 k3, PS)
- target mRNA inhibition (1 µM): 48%

Sequence: CGTTATAAGTTTCATG (sugars k3 d10 k3, PS)
- target mRNA inhibition (1 µM): 33%

Sequence: TCGGGAAGTTTAGACA (sugars k3 d10 k3, PS)
- target mRNA inhibition (1 µM): 43%

Sequence: ACATAACTACTTCAGT (sugars k3 d10 k3, PS)
- target mRNA inhibition (1 µM): 28%

Sequence: TGTAAAGGCTGGGTGA (sugars k3 d10 k3, PS)
- target mRNA inhibition (1 µM): 26%

Sequence: TATCTTATAAGACTAT (sugars k3 d10 k3, PS)
- target mRNA inhibition (1 µM): 43%

Sequence: TGTAAGCTGAGAGTTC (sugars k3 d10 k3, PS)
- target mRNA inhibition (1 µM): 45%

Sequence: CCAGGTTGAGATAAAG (sugars k3 d1 m1 d8 k3, PS)
- target mRNA inhibition (1 µM): 49%

Sequence: ATAACTACATGACCTG (sugars k3 d10 k3, PS)
- target mRNA inhibition (1 µM): 29%

Sequence: TATACTAGGATTAGAA (sugars k3 d10 k3, PS)
- target mRNA inhibition (1 µM): 2%

Sequence: GTTTCTTATGTAATAG (sugars kkdddddddddkekek, PS)
- target mRNA inhibition (1 µM): 21%

Sequence: CCTGAAAAGCCCTATT (sugars k3 d10 k3, PS)
- target mRNA inhibition (1 µM): 0%

Sequence: AATACTAATGTCCAAG (sugars k3 d10 k3, PS)
- target mRNA inhibition (1 µM): 65%

Sequence: AAAAGACTTTGAGACT (sugars k3 d10 k3, PS)
- target mRNA inhibition (1 µM): 32%

Sequence: CATCCCCTAAGTTATT (sugars k3 d10 k3, PS)
- target mRNA inhibition (1 µM): 24%

Sequence: ATTTAGAATACGCTGA (sugars k3 d10 k3, PS)
- target mRNA inhibition (1 µM): 19%

Sequence: ATGTAGTGTTTACAAG (sugars k3 d10 k3, PS)
- target mRNA inhibition (1 µM): 58%

Sequence: TCTCUTGACAATGGTT (sugars k3 d1 m1 d8 k3, PS)
- target mRNA inhibition (1 µM): 62%

Sequence: TGTTACATCACCCACT (sugars k3 d10 k3, PS)
- target mRNA inhibition (1 µM): 35%

Sequence: GAGACATGAGGTTTTG (sugars k3 d10 k3, PS)
- target mRNA inhibition (0.02 µM): 0%
- target mRNA inhibition (0.078 µM): 0%
- target mRNA inhibition (0.313 µM): 22%
- target mRNA inhibition (1 µM): 77%
- target mRNA inhibition (1.25 µM): 65%
- target mRNA inhibition (5 µM): 88%

Sequence: GTTCTTGTTGATATTC (sugars k3 d9 k3 e1, PS)
- target mRNA inhibition (1 µM): 69%

Sequence: GGGAGGTAGCTTTTGT (sugars k3 d9 k3 e1, PS)
- target mRNA inhibition (1 µM): 40%

Sequence: CAGAUTGGAATGCTAC (sugars k3 d1 m1 d8 k3, PS)
- target mRNA inhibition (0.02 µM): 7%
- target mRNA inhibition (0.078 µM): 25%
- target mRNA inhibition (0.313 µM): 42%
- target mRNA inhibition (1 µM): 70%
- target mRNA inhibition (1.25 µM): 56%
- target mRNA inhibition (5 µM): 82%

Sequence: TGCTGCTAGTGCCAAA (sugars k3 d1 m1 d8 k3, PS)
- target mRNA inhibition (1 µM): 50%

Sequence: TAGCUGTGCACTCATT (sugars k3 d1 m1 d8 k3, PS)
- target mRNA inhibition (1 µM): 60%

Sequence: ATACATCAACTCCTCT (sugars k3 d10 k3, PS)
- target mRNA inhibition (0.02 µM): 0%
- target mRNA inhibition (0.078 µM): 9%
- target mRNA inhibition (0.313 µM): 26%
- target mRNA inhibition (1 µM): 64%
- target mRNA inhibition (1.25 µM): 63%
- target mRNA inhibition (5 µM): 83%

Sequence: GCTTATCGAGTTTAGC (sugars k3 d10 k3, PS)
- target mRNA inhibition (1 µM): 17%

Sequence: ATAATAGCTCTATTGG (sugars k3 d10 k3, PS)
- target mRNA inhibition (1 µM): 46%

Sequence: TATTGGTAAGTATTCC (sugars kkdddddddddkekek, PS)
- target mRNA inhibition (1 µM): 36%

Sequence: TAAGGCAAAGATCTGG (sugars k3 d10 k3, PS)
- target mRNA inhibition (1 µM): 46%

Sequence: GTAACTGTATTAAGAC (sugars k3 d10 k3, PS)
- target mRNA inhibition (1 µM): 54%

Sequence: TATATAACATGGCTGG (sugars k3 d10 k3, PS)
- target mRNA inhibition (1 µM): 8%

Sequence: GGAGTATGACAACTGG (sugars k3 d10 k3, PS)
- target mRNA inhibition (1 µM): 28%

Sequence: CAGTTTTCCTCATGAT (sugars k3 d9 k3 e1, PS)
- target mRNA inhibition (1 µM): 65%

Sequence: TATTAGAAGTCAGCCC (sugars k3 d1 m1 d8 k3, PS)
- target mRNA inhibition (1 µM): 29%

Sequence: GATATGTCAATACTCC (sugars k3 d10 k3, PS)
- target mRNA inhibition (1 µM): 59%

Sequence: AAAAAAGCTTATCGAG (sugars k3 d10 k3, PS)
- target mRNA inhibition (1 µM): 7%

Sequence: TAGCTTTTGTCCACCT (sugars kkdddddddddkekek, PS)
- target mRNA inhibition (0.02 µM): 0%
- target mRNA inhibition (0.078 µM): 3%
- target mRNA inhibition (0.313 µM): 29%
- target mRNA inhibition (1 µM): 71%
- target mRNA inhibition (1.25 µM): 53%
- target mRNA inhibition (5 µM): 48%

Sequence: AAGATACCCAGGTTGC (sugars k3 d10 k3, PS)
- target mRNA inhibition (1 µM): 59%

Sequence: GAGAATTGTTTAGTTC (sugars k3 d10 k3, PS)
- target mRNA inhibition (1 µM): 47%

Sequence: CTACTTTCAAACCTTG (sugars k3 d10 k3, PS)
- target mRNA inhibition (1 µM): 57%

Sequence: GGGAAAGAAGTCTCCT (sugars k3 d10 k3, PS)
- target mRNA inhibition (1 µM): 13%

Sequence: GATAGAGCACATGGCC (sugars k3 d10 k3, PS)
- target mRNA inhibition (1 µM): 20%

Sequence: GTATAAATGGCAATTC (sugars k3 d10 k3, PS)
- target mRNA inhibition (1 µM): 56%

Sequence: GTTGAGATAAAGCTGC (sugars k3 d9 k3 e1, PS)
- target mRNA inhibition (1 µM): 59%

Sequence: TTGCTGGAACAATATG (sugars k3 d10 k3, PS)
- target mRNA inhibition (1 µM): 20%

Sequence: AACAGTTTAGATTGCA (sugars k3 d10 k3, PS)
- target mRNA inhibition (1 µM): 71%

Sequence: TGTTAACCTGCAGCAG (sugars k3 d10 k3, PS)
- target mRNA inhibition (1 µM): 39%

Sequence: CTATCTCCCTATTTGT (sugars k3 d10 k3, PS)
- target mRNA inhibition (1 µM): 15%

Sequence: TGTTGATATTCTGTGG (sugars kkdddddddddkekek, PS)
- target mRNA inhibition (1 µM): 54%

Sequence: AATATCAGCCATCTAG (sugars k3 d10 k3, PS)
- target mRNA inhibition (1 µM): 24%

Sequence: AACATCTCTGGGACCA (sugars kkdddddddddkekek, PS)
- target mRNA inhibition (1 µM): 36%

Sequence: ACTCCGTTATAAGTTT (sugars k3 d10 k3, PS)
- target mRNA inhibition (1 µM): 42%

Sequence: AGTCCAGAATAGAGTT (sugars k3 d10 k3, PS)
- target mRNA inhibition (1 µM): 58%

Sequence: ACTTGATCTCTTAGCT (sugars k3 d9 k3 e1, PS)
- target mRNA inhibition (1 µM): 59%

Sequence: ATGCUACTTGAACAGT (sugars k3 d1 m1 d8 k3, PS)
- target mRNA inhibition (1 µM): 46%

Sequence: ATAGGCAGTAAAGTGC (sugars k3 d10 k3, PS)
- target mRNA inhibition (1 µM): 56%

Sequence: AGTTGCACCGTTTTGG (sugars kkdddddddddkekek, PS)
- target mRNA inhibition (1 µM): 41%

Sequence: TAGAATAGTCTTCAGC (sugars k3 d10 k3, PS)
- target mRNA inhibition (0.02 µM): 0%
- target mRNA inhibition (0.078 µM): 0%
- target mRNA inhibition (0.313 µM): 16%
- target mRNA inhibition (1 µM): 70%
- target mRNA inhibition (1.25 µM): 52%
- target mRNA inhibition (5 µM): 77%

Sequence: TTGACCTCAAATGTCT (sugars k3 d10 k3, PS)
- target mRNA inhibition (1 µM): 0%

Sequence: CTACTTGAACAGTCTT (sugars k3 d9 k3 e1, PS)
- target mRNA inhibition (1 µM): 71%

Sequence: TAAGAGTCAGTATCCT (sugars k3 d10 k3, PS)
- target mRNA inhibition (1 µM): 52%

Sequence: TCACATATGTGAAGAG (sugars k3 d10 k3, PS)
- target mRNA inhibition (1 µM): 27%

Sequence: GAACAGTCTTAAACCT (sugars kkdddddddddkekek, PS)
- target mRNA inhibition (1 µM): 63%

Sequence: ATATUCTGTGGCATGG (sugars k3 d1 m1 d8 k3, PS)
- target mRNA inhibition (1 µM): 63%

Sequence: ATTGATATACGATGGA (sugars k3 d10 k3, PS)
- target mRNA inhibition (1 µM): 31%

Sequence: AGCTAAGAGACACTTC (sugars k3 d10 k3, PS)
- target mRNA inhibition (1 µM): 41%

Sequence: TAATAGCCAGTACAGT (sugars k3 d10 k3, PS)
- target mRNA inhibition (1 µM): 64%

Sequence: CTTTTTATAGACTGGG (sugars kkdddddddddkekek, PS)
- target mRNA inhibition (1 µM): 37%

Sequence: GTAAGGAGTAGTGGAG (sugars k3 d10 k3, PS)
- target mRNA inhibition (1 µM): 37%

Sequence: ATAAAAATTGGCCTCC (sugars k3 d10 k3, PS)
- target mRNA inhibition (1 µM): 41%

Sequence: CTACTTGAACAGTCTT (sugars k3 d10 k3, PS)
- target mRNA inhibition (0.02 µM): 8%
- target mRNA inhibition (0.078 µM): 23%
- target mRNA inhibition (0.313 µM): 49%
- target mRNA inhibition (1 µM): 80%
- target mRNA inhibition (1.25 µM): 79%
- target mRNA inhibition (5 µM): 97%

Sequence: ACCAGAATCCATTCTA (sugars k3 d10 k3, PS)
- target mRNA inhibition (1 µM): 60%

Sequence: GTAGCTTTTGTCCACC (sugars k3 d10 k3, PS)
- target mRNA inhibition (1 µM): 63%

Sequence: TCAAATTAAGATGTCC (sugars k3 d10 k3, PS)
- target mRNA inhibition (1 µM): 6%

Sequence: GCCAGGGAATGCTCAT (sugars k3 d10 k3, PS)
- target mRNA inhibition (1 µM): 38%

Sequence: TCCAAAAGTGTCCTCG (sugars k3 d10 k3, PS)
- target mRNA inhibition (1 µM): 31%

Sequence: CCATAATCTGTGATTA (sugars k3 d10 k3, PS)
- target mRNA inhibition (1 µM): 9%

Sequence: CTAGUGCCAAACCAAT (sugars k3 d1 m1 d8 k3, PS)
- target mRNA inhibition (1 µM): 45%

Sequence: GCCTAAACAAACACTA (sugars k3 d10 k3, PS)
- target mRNA inhibition (1 µM): 37%

Sequence: GCCAAGGGAACACTGT (sugars k3 d10 k3, PS)
- target mRNA inhibition (1 µM): 61%

Sequence: AAGAGTCAGTATCCTC (sugars kkdddddddddkekek, PS)
- target mRNA inhibition (1 µM): 14%

Sequence: AGAATAGAGTTGCACC (sugars k3 d9 k3 e1, PS)
- target mRNA inhibition (1 µM): 58%

Sequence: ACTTTTCCGTCTCACA (sugars k3 d10 k3, PS)
- target mRNA inhibition (0.02 µM): 0%
- target mRNA inhibition (0.078 µM): 19%
- target mRNA inhibition (0.313 µM): 61%
- target mRNA inhibition (1 µM): 89%
- target mRNA inhibition (1.25 µM): 88%
- target mRNA inhibition (5 µM): 84%

Sequence: AGGGAGGTAGCTTTTG (sugars k3 d10 k3, PS)
- target mRNA inhibition (1 µM): 46%

Sequence: CTTACCTTGTGCTTGG (sugars k3 d10 k3, PS)
- target mRNA inhibition (1 µM): 34%

Sequence: AGTAGTGGAGCCAGAC (sugars k3 d10 k3, PS)
- target mRNA inhibition (1 µM): 39%

Sequence: TTCTAGGTCAGTAGAG (sugars k3 d10 k3, PS)
- target mRNA inhibition (1 µM): 58%
